Source: patent US10206394B2, “Herbicidal compounds” (Syngenta Participations AG, priority 2014, dated 2019)
Where two headings read alike, the source gives them in different places.

Tests used:
Assay in all cases: Glasshouse assay for herbicidal activity (pre- and post-emergence), percentage phytotoxicity
Assay type in all cases: in vivo
[1] = system: Avena fatua (AVEFA); conditions: Avena fatua
Procedure: (§1) Test—Glasshouse Assay for Herbicidal Activity
(§2) Seeds of a variety of monocotyledonous and dicotyledonous test plants are sown in standard soil in pots. The plants are cultivated for one day (for pre-emergence (PRE)) or for about 12 days (for post-emergence (POST)) under controlled conditions in a glasshouse (warm climate species at 24/18° C., cool climate species at 20/16° C., both at day/night; 16 hours light; 65% humidity).
(§3) The test plants are then grown on, in a glasshouse (greenhouse) under controlled conditions (warm climate species at 24/18° C., cool climate species at 20/16° C., both at day/night; 16 hours light; 65% humidity) and are watered twice daily. 15 days after application of the test herbicide (15 DAA) (for post-emergence), and 20 days after application of the test herbicide (20 DAA) (for pre-emergence), the test plants are evaluated visually, and an assessed percentage phytotoxicity score is given for each herbicidal application on each plant species (with 100%=total damage to plant; 0%=no damage to plant).
(§4) The plant species tested are as follows: Alopecurus myosuroides (ALOMY), Avena fatua (AVEFA), Lolium perenne (LOLPE), Echinochloa crus-galli (ECHCG).

[2] = system: Lolium perenne (LOLPE); conditions: Lolium perenne
Procedure: as §1, §2, §3, §4

[3] = system: Echinochloa crus-galli (ECHCG); conditions: Echinochloa crus-galli
Procedure: as §1, §2, §3, §4

[4] = system: Alopecurus myosuroides (ALOMY); conditions: Alopecurus myosuroides
Procedure: as §1, §2, §3, §4

[5] = post-emergence, 360 h, 250 g/ha, post-emergence, 15 DAA, visual assessment (100%=total damage, 0%=no damage), read-out: Post-emergence herbicidal activity (percentage phytotoxicity) AVEFA POST
[6] = pre-emergence, 480 h, 250 g/ha, pre-emergence, 20 DAA, visual assessment (100%=total damage, 0%=no damage), read-out: Pre-emergence herbicidal activity (percentage phytotoxicity) AVEFA PRE
[7] = post-emergence, 360 h, 250 g/ha, post-emergence, 15 DAA, visual assessment (100%=total damage, 0%=no damage), read-out: Post-emergence herbicidal activity (percentage phytotoxicity) LOLPE POST
[8] = pre-emergence, 480 h, 250 g/ha, pre-emergence, 20 DAA, visual assessment (100%=total damage, 0%=no damage), read-out: Pre-emergence herbicidal activity (percentage phytotoxicity) LOLPE PRE
[9] = post-emergence, 360 h, 250 g/ha, post-emergence, 15 DAA, visual assessment (100%=total damage, 0%=no damage), read-out: Post-emergence herbicidal activity (percentage phytotoxicity) ECHCG POST
[10] = pre-emergence, 480 h, 250 g/ha, pre-emergence, 20 DAA, visual assessment (100%=total damage, 0%=no damage), read-out: Pre-emergence herbicidal activity (percentage phytotoxicity) ECHCG PRE
[11] = post-emergence, 360 h, 250 g/ha, post-emergence, 15 DAA, visual assessment (100%=total damage, 0%=no damage), read-out: Post-emergence herbicidal activity (percentage phytotoxicity) ALOMY POST
[12] = pre-emergence, 480 h, 250 g/ha, pre-emergence, 20 DAA, visual assessment (100%=total damage, 0%=no damage), read-out: Pre-emergence herbicidal activity (percentage phytotoxicity) ALOMY PRE
[13] = post-emergence, 360 h, POST-emergence, rate 250 g/ha, visual score 15 DAA (100%=total damage, 0%=no damage), read-out: Post-emergence herbicidal activity (percentage phytotoxicity) AVEFA POST
[14] = pre-emergence, 480 h, PRE-emergence, rate 250 g/ha, visual score 20 DAA (100%=total damage, 0%=no damage), read-out: Pre-emergence herbicidal activity (percentage phytotoxicity) AVEFA PRE
[15] = post-emergence, 360 h, POST-emergence, rate 250 g/ha, visual score 15 DAA (100%=total damage, 0%=no damage), read-out: Post-emergence herbicidal activity (percentage phytotoxicity) LOLPE POST
[16] = pre-emergence, 480 h, PRE-emergence, rate 250 g/ha, visual score 20 DAA (100%=total damage, 0%=no damage), read-out: Pre-emergence herbicidal activity (percentage phytotoxicity) LOLPE PRE
[17] = post-emergence, 360 h, POST-emergence, rate 250 g/ha, visual score 15 DAA (100%=total damage, 0%=no damage), read-out: Post-emergence herbicidal activity (percentage phytotoxicity) ECHCG POST
[18] = pre-emergence, 480 h, PRE-emergence, rate 250 g/ha, visual score 20 DAA (100%=total damage, 0%=no damage), read-out: Pre-emergence herbicidal activity (percentage phytotoxicity) ECHCG PRE
[19] = post-emergence, 360 h, POST-emergence, rate 250 g/ha, visual score 15 DAA (100%=total damage, 0%=no damage), read-out: Post-emergence herbicidal activity (percentage phytotoxicity) ALOMY POST
[20] = pre-emergence, 480 h, PRE-emergence, rate 250 g/ha, visual score 20 DAA (100%=total damage, 0%=no damage), read-out: Pre-emergence herbicidal activity (percentage phytotoxicity) ALOMY PRE

`Cc1cc(-c2ncc(F)cn2)cc(C)c1C1C(=O)CC(CC(=O)NC(C)(C)C)C1=O` (stereo not drawn) [Compound B5] gave a pest or weed control at 250 g/ha [1, 5] of 100%, a pest or weed control at 250 g/ha [1, 6] of 90% and a pest or weed control at 250 g/ha [2, 7] of 90%. For the same compound, the pest or weed control at 250 g/ha [2, 8] was 100%, the pest or weed control at 250 g/ha [3, 9] was 100% and the pest or weed control at 250 g/ha [3, 10] was 100%. For the same compound, the pest or weed control at 250 g/ha [4, 11] was 100% and the pest or weed control at 250 g/ha [4, 12] was 100%.

In the case of `Cc1cc(C)c(C2C(=O)CC(CC(=O)NC/C=C/Cl)C2=O)c(C)c1` (stereo not drawn) [Compound B46], the pest or weed control at 250 g/ha [1, 5] is reported as 90%, the pest or weed control at 250 g/ha [1, 6] is reported as 60% and the pest or weed control at 250 g/ha [2, 7] is reported as 90%. It also gave a pest or weed control at 250 g/ha [2, 8] of 100%, a pest or weed control at 250 g/ha [3, 9] of 90% and a pest or weed control at 250 g/ha [3, 10] of 90%. The pest or weed control at 250 g/ha [4, 11] was 90% and the pest or weed control at 250 g/ha [4, 12] was 90%.

Work on `CCc1cc(-n2cc(Cl)cn2)cc(C)c1C1C(=O)CC(CC(=O)N(C)C(C)(C)C)C1=O` (stereo not drawn) [Compound B239] yielded a pest or weed control at 250 g/ha [1, 13] of 100%, a pest or weed control at 250 g/ha [1, 14] of 90% and a pest or weed control at 250 g/ha [2, 15] of 100%. It also gave a pest or weed control at 250 g/ha [2, 16] of 100%, a pest or weed control at 250 g/ha [3, 17] of 100% and a pest or weed control at 250 g/ha [3, 18] of 100%. The pest or weed control at 250 g/ha [4, 19] was 90% and the pest or weed control at 250 g/ha [4, 20] was 100%.

`Cc1cc(-c2ccc(Br)cn2)cc(C)c1C1C(=O)CC(CC(=O)N2CCOCC2)C1=O` (stereo not drawn) [Compound B299] was tested, and the pest or weed control at 250 g/ha [1, 13] was 90%, the pest or weed control at 250 g/ha [1, 14] was 90% and the pest or weed control at 250 g/ha [2, 15] was 100%. For the same compound, the pest or weed control at 250 g/ha [2, 16] was 100%, the pest or weed control at 250 g/ha [3, 17] was 100% and the pest or weed control at 250 g/ha [3, 18] was 100%. The pest or weed control at 250 g/ha [4, 19] was 90% and the pest or weed control at 250 g/ha [4, 20] was 90%.

With `Cc1cc(OCC(F)(F)F)cc(C)c1C1C(=O)CC(CC(=O)NCC2CC2)C1=O` (stereo not drawn) [Compound B210] the pest or weed control at 250 g/ha [1, 13] was 90%, the pest or weed control at 250 g/ha [1, 14] was 80% and the pest or weed control at 250 g/ha [2, 15] was 90%. The pest or weed control at 250 g/ha [2, 16] was 100%, the pest or weed control at 250 g/ha [3, 17] was 100% and the pest or weed control at 250 g/ha [3, 18] was 100%. It also gave a pest or weed control at 250 g/ha [4, 19] of 100% and a pest or weed control at 250 g/ha [4, 20] of 100%.

`Cc1cc(C)c(C2=C(OC(=O)C(C)(C)C)CC(CC(=O)NC3COC3)C2=O)c(C)c1` (stereo not drawn) [Compound P13] showed a pest or weed control at 250 g/ha ([1]; post-emergence, 360 h, Rate 250 g/ha, post-emergence, visual assessment 15 DAA, 100%=total damage, 0%=no damage, read-out: Post-emergence herbicidal activity (percentage phytotoxicity) AVEFA POST) of 70%, a pest or weed control at 250 g/ha ([1]; pre-emergence, 480 h, Rate 250 g/ha, pre-emergence, visual assessment 20 DAA, 100%=total damage, 0%=no damage, read-out: Pre-emergence herbicidal activity (percentage phytotoxicity) AVEFA PRE) of 10% and a pest or weed control at 250 g/ha ([2]; post-emergence, 360 h, Rate 250 g/ha, post-emergence, visual assessment 15 DAA, 100%=total damage, 0%=no damage, read-out: Post-emergence herbicidal activity (percentage phytotoxicity) LOLPE POST) of 70%. The pest or weed control at 250 g/ha ([2]; pre-emergence, 480 h, Rate 250 g/ha, pre-emergence, visual assessment 20 DAA, 100%=total damage, 0%=no damage, read-out: Pre-emergence herbicidal activity (percentage phytotoxicity) LOLPE PRE) was 10%, the pest or weed control at 250 g/ha ([3]; post-emergence, 360 h, Rate 250 g/ha, post-emergence, visual assessment 15 DAA, 100%=total damage, 0%=no damage, read-out: Post-emergence herbicidal activity (percentage phytotoxicity) ECHCG POST) was 80% and the pest or weed control at 250 g/ha ([3]; pre-emergence, 480 h, Rate 250 g/ha, pre-emergence, visual assessment 20 DAA, 100%=total damage, 0%=no damage, read-out: Pre-emergence herbicidal activity (percentage phytotoxicity) ECHCG PRE) was 20%. For the same compound, the pest or weed control at 250 g/ha ([4]; post-emergence, 360 h, Rate 250 g/ha, post-emergence, visual assessment 15 DAA, 100%=total damage, 0%=no damage, read-out: Post-emergence herbicidal activity (percentage phytotoxicity) ALOMY POST) was 80% and the pest or weed control at 250 g/ha ([4]; pre-emergence, 480 h, Rate 250 g/ha, pre-emergence, visual assessment 20 DAA, 100%=total damage, 0%=no damage, read-out: Pre-emergence herbicidal activity (percentage phytotoxicity) ALOMY PRE) was 50%.
